The record followed here is patent US20030181401A1, “Insulin secretion promoter” (KYOWA HAKKO KOGYO CO., LTD., priority 2002, published 2003).

Common to all, as to type: in vivo
Experiment [1] deals with C57BL/KsJ-db/db Jcl mice (model animals of Type II diabetes mellitus). Kind of experiment: Test Example 1: serum insulin in glucose tolerance test after 7-day oral dosing. As to the method:
Male 9-week-old C57BL/KsJ-db/db Jcl (abbreviated as “db/db” hereinafter) mice (Clea Japan, Inc.), which are model animals of Type II diabetes mellitus, were divided in groups each consisting of 6 mice, and fed a commercially available feed CE-2 (Clea Japan, Inc.) for one week, so as to accustom the animals to the environment.
After acclimation, an aqueous 10% solution of 2′-fucosyllactose (sometimes abbreviated as “2′-FL” hereinafter) was orally administered to the mice at 200 mg (2′-FL)/kg body weight in the morning and at 300 mg (2′-FL) /kg body weight in the evening. The same volume of Saline was administered to the control group. The aqueous 2′-FL solution and the saline were both dosed daily to the mice for 7 days.
During the dosing period, CE-2 was-given together with drinking water ad libitum.
After 18-hour starvation from the final dosing on day 7, an aqueous 40% glucose solution was orally administered to 2 g (glucose)/kg body weight to the mice, to perform glucose tolerance test. Zero minute and 30 minutes after glucose loading, blood was taken from tail vein. […] Blood was centrifuged (4° C., 10000 rpm, 10 minutes), to obtain serum.
Insulin in the serum recovered was assayed by enzyme immunoassay using Lebis Insulin kit (for rats-T) (Shibayagi, Co., Ltd.) as follows. The kit reacts with insulin in the sera of both rats and mice.
First, the serum recovered was diluted with the buffer attached to the kit to 5 fold. 10 μl of the diluted serum was taken and divided in the wells of the antibody-immobilized plate into which 100 μl of a biotin-bound anti-insulin antibody was added, for reaction at ambient temperature for 2 hours. After the reaction, the plate was rinsed four times with the rinse solution attached to the kit. After rinsing, 100 μl of the peroxidase-avidin bound material was divided in the wells, for reaction at ambient temperature for 30 minutes. After reaction, the plate was rinsed four times with the rinse solution. After rinsing, 100 μl of the chromogenic solution was divided in the wells, for chromogenic reaction for 30 minutes, followed by addition of 100 μl of the reaction termination solution to each well. The absorbance of the reaction solution in the wells at 450 nm was read with a plate reader.
Herein, a standard curve was prepared by using the 200 ng/ml standard insulin solution (rat) attached to the kit as a standard solution to dilute the standard solution appropriately with the buffer solution attached to the kit for the same reaction as for the serum, and plotting the relation between the concentration and the absorbance (450 nm).
Based on the prepared standard curve and the absorbance from the reaction with the serum, the insulin concentration in the serum was determined.

Experiment [2] concerns ICR mice. Description: Test Example 7: serum insulin after intravenous 2′-FL dosing without glucose loading. As to the method:
Groups of male 9-week-old ICR mice (Japan SLC, Inc.) each consisting of 7 mice were fed a commercially available CE-2 (Clea Japan, Inc.) for one week, so as to accustom the mice to the environment. Thereafter, an aqueous 1% solution of 2′-FL was intravenously administered to the mice to 50 mg (2′-FL)/kg body weight. The same volume of saline was administered to the control group. Zero minute and 30 minutes after dosing, blood was taken from a tail vein. […] Blood was centrifuged (4° C., 10000 rpm, 10 minutes), to obtain serum.
Insulin in the serum recovered was assayed by enzyme immunoassay using Lebis Insulin kit (for mice-T) (Shibayagi, Co., Ltd.) in the same manner as in the Test Example 2.

For experiment [3], the system named is ICR mice. Description: Test Example 8: serum insulin in glucose tolerance test after single oral 2′-FL dose. As to the method: (§1) Groups of male 8-week-old ICR mice (Japan SLC, Inc.) each consisting of 6 mice were fed CE-2 (Clea Japan, Inc.) for one week, so as to accustom the animals to the environment.
(§2) Then, the mice accustomed were fasted for 18 hours. An aqueous 2% solution of 2′-FL was orally administered to the mice to 100 mg (2′-FL)/kg body weight, while 0.9% saline was administered orally to the control group. Two hours after the 2′-FL dosing, an aqueous 40% glucose solution was orally administered to 2 g (glucose)/kg body weight to the mice, for glucose tolerance test. […] Blood glucose was assayed with a simple-type blood glucose assay apparatus Medisafe Reader GR-101 (Terumo, Co., Ltd.), while the serum was collected.
Insulin in the serum recovered was assayed by enzyme immunoassay using Morinaga ultra-sensitive rat insulin assay kit (Morinaga Biochemical Research Institute, Co., Ltd.) described below. 15 μl of the serum was divided in the wells of an antibody-immobilized plate, where 85 μl of the diluent attached to the kit was divided therein, for reaction at 4° C. for 2 hours. […] The absorbance of each well at 450 nm (principal wave length) and 655 nm (sub wave length) was measured with BioRad Model 3550 microplate reader (BioRad Laboratories, Inc.). […] Based on the prepared standard curve, the serum insulin concentration corresponding to the absorbance during the reaction with the serum was determined.

Experiment [4] concerns ICR mice. Kind of experiment: Test Example 8: blood glucose in glucose tolerance test after single oral 2′-FL dose. On the procedure: as §1, §2
The mark [5] stands for this setting: ICR mice fasted 18 hours, 100 mg/kg single oral dose two hours before glucose 2 g/kg oral, 60 minutes, mean ± SD.
The mark [6] stands for this setting: ICR mice, single oral dosing 120 minutes before glucose dosing.

2′-fucosyllactose [2′-FL]: the “insulin concentration after glucose loading compared with the control group (in words)” value in experiment [1] (continuous daily oral dosing) is given as “increased”. Moreover, in experiment [1] (oral 200 mg/kg morning + 300 mg/kg evening, 7 days, 18-hour starvation, glucose 2 g/kg oral, zero minute, mean ± SD), the “Serum insulin concentration after glucose loading, Zero minute” value amounted to 6.7 ± 3.3 ng/mL. Moreover, the “Serum insulin concentration after glucose loading, 30 minutes” value in experiment [1] (oral 200 + 300 mg/kg daily, 7 days, glucose 2 g/kg oral, 30 minutes, mean ± SD) turned out to be 8.3 ± 3.9 ng/mL. Further, in experiment [1] (oral 200 + 300 mg/kg daily, 7 days, glucose 2 g/kg oral, 120 minutes, mean ± SD), the “Serum insulin concentration after glucose loading, 120 minutes” value came out at 26.1 ± 12.8 ng/mL. For the same substance, the “Serum insulin concentration after 2′-FL dosing, 30 minutes” value in the experiment on ICR mice [2] (50 mg/kg intravenous, no glucose loading, 30 minutes after dosing, mean ± SD) was 168.6 ± 40.2 pg/mL. Moreover, the “Serum insulin concentration after 2′-FL dosing, 120 minutes” value in the experiment on ICR mice [2] (50 mg/kg intravenous, no glucose loading, 120 minutes after dosing, mean ± SD) was found to be 2035.9 ± 1098.0 pg/mL. In the experiment with ICR mice [2] (intravenous 2′-FL dosing), the “serum insulin concentration compared with the control group (in words)” value is “increased”. For the same substance, the “Serum insulin concentration after glucose loading” value with ICR mice [3] (setting [5]) turned out to be 82.6 ± 91.7 pg/mL. The “serum insulin concentration after glucose loading compared with the control group (in words)” value in the experiment with ICR mice [3] (setting [6]) is reported as “increased”. In the experiment with ICR mice [4] (ICR mice fasted 18 hours, 100 mg/kg single oral dose two hours before glucose 2 g/kg oral, 0 minute, mean ± SD), this substance gave a Blood glucose level after glucose loading, 0 minute of 109 ± 4.4 mg/dL. This substance also displayed a Blood glucose level after glucose loading, 60 minutes in the experiment with ICR mice [4] (setting [5]) of 219 ± 29 mg/dL. The substance further yielded a Blood glucose level after glucose loading, 120 minutes with ICR mice [4] (ICR mice fasted 18 hours, 100 mg/kg single oral dose two hours before glucose 2 g/kg oral, 120 minutes, mean ± SD) of 147 ± 14.2 mg/dL. Also, the Blood glucose level after glucose loading, −120 minutes in the experiment on ICR mice [4] (ICR mice fasted 18 hours, 100 mg/kg single oral dose two hours before glucose 2 g/kg oral, −120 minutes, mean ± SD) was 131 ± 23.6 mg/dL. Moreover, the “elevation of blood glucose level (in words)” value in the experiment on ICR mice [4] (setting [6]) is “suppressed”.
